The melting point is the temperature of the solid-liquid transition.

The values that follow come from US6518339B1, “Aldehyde emission reduction for dibenzylidene sorbitol clarified plastics” (Milliken & Company, priority 2000, dated 2003).

Data set [1] is described as follows: Water solubility of the hydrazide/aldehyde reaction product. The class given is physicochemical. Particulars: tap water; precipitate from adipic dihydrazide and 4-methylbenzaldehyde. The method, then: The reaction product of hydrazide and aldehyde was then tested for water solubility. The test involved the following: To a 10-ounce sample vial was charged 30 ml of tap water and 0.14 g (0.8 mmol) of adipic dihydrazide. This mixture was shaken until a clear, colorless solution was obtained. 4-Methylbezaldehyde (0.14 g, 1.3 mmol) was added to the solution and the mixture was shaken for one minute, immediately precipitating a white solid. The mixture was then allowed to stand for an additional ten minutes, followed by collection of the solids by suction filtration to obtain […] of the (bis 4-methyl)adiponylbis(hydrazone).

Data set [2] can be described thus: Retort test, UV/VIS measurement of extracted aldehyde (Japanese Pharmacopoeia protocol). The conditions noted are these: hydrazide in formulation with 3,4-DMDBS, versus 3,4-DMDBS alone. The method, then:
Testing was then conducted to determine the extent of aldehyde extraction from the compounded plastics. The testing procedures were as follows: Retort testing was performed per the Japanese Pharmacopoeia protocol (Japanese Pharmacopoeia, 13th ed. 1996: 76-82). Seven 50-mil plaques of each formulation were cut into 9 strips, rinsed with water, and placed into clean 1 quart Mason jars containing 200 ml of deionized water. The jars were covered with aluminum foil and autoclaved for 1 hour. The extraction water was then analyzed for UV absorbance between 220-240 nm and from 241-350 nm, after a suitable blank had been tested. Powderless latex gloves were worn during the entire procedure.

Consider `Cc1ccc(C=NNC(=O)CCCCC(=O)NN=Cc2ccc(C)cc2)cc1` [(bis 4-methyl)adiponylbis(hydrazone)], for which, in data set [1], the “Water solubility, in words” value was “substantially insoluble in water”. In the case of `NNC(=O)CCCCC(=O)NN` [Example 2, Adipic dihydrazide], the melting point was in the range of 182.5 to 185.5 °C. Consider `NNC(=O)CCCC(=O)NN` [Example 4, Glutaric dihydrazide], for which the melting point lay in the range of 176.3 to 178.6 °C. `NNC(=O)CCCCCC(=O)NN` [Example 5, Pimelic dihydrazide] returned a melting point of 183.2 to 185 °C. In data set [2], the “Reduction of peak absorbance between 220-240 nm” value stood at 70% and the “Reduction of peak absorbance between 241-350 nm” value is 80%. `NNC(=O)CCCCCCC(=O)NN` [Example 6, Suberic dihydrazide] had a melting point of 186.9 to 189.1 °C.
